Source: patent publication US4774078A, “Stable antiplaque dentifrice based on hexetidine, zinc ion and fluoride” (Colgate-Palmolive Company, priority 1986, dated 1988)
Like-named read-outs stand apart in the source and are kept apart here.

Columns and labels:
Strep mutans = experiment: MIC (minimum inhibitory concentration) with Strep. mutans; assay type: cell-based; details: active ingredient alone, water/alcohol/propylene glycol mixture, total bacterial inhibition
From the text: Hexetidine is a broad-spectrum, water-insoluble antibacterial, having the chemical formula [drawing 1] 5-amino-1,3-bis(2 ethylhexyl)-5-methyl-hexahydropyrimidine. It has been used as an antibacterial agent in antiplaque and antigingivitis oral compositions as previously discussed. However, hexetidine is a bitter-tasting chemical, thereby limiting its use to low levels in order to minimize its bitter taste, which in turn limits its therapeutic activity.
Table I gives the MIC (minimum inhibitory concentration) results with Strep. mutans.
All the active ingredients (AI) are in water/alcohol/propylene glycol mixtures.
The FIC (Fractional Inhibitory Concentration), has been calculated from the MIC data for each ratio.
A minimum concentration of 0.60 ppm hexetidine alone is needed for total bacterial inhibition, and a minimum concentration of 40 ppm of zinc++ alone is required for total bacterial inhibition; whereas a concentration of 0.12 ppm hexetidine in combination with 0.12 ppm zinc++ effects total bacterial inhibition. This increase in the antibacterial activity of the hexetidine due to the presence of the zinc++ reduces the amount necessary to produce a therapeutic effect, and this minimizes the bitter taste associated with hexetidine.

[1] = Active ingredient stability of dentifrice after aging 9 weeks at 49° C.
From the text: The pH of the dentifrice can be adjusted to 5-6 with an appropriate acid such as acetic acid, citric acid, hydrochloric acid, phosphoric acid, etc., if necessary.

[2] = cited from earlier work

Compound | MIC (Strep mutans) [ppm] | MIC (Strep mutans; listed as zinc++) [ppm] | % Available After Aging ([1]; in dentifrices of Examples 1 and 2 (sodium lauryl sulfate), pH 5-6, 90720 min) [%] | % Available After Aging ([1]; in dentifrices of Examples 3 and 4 (polyoxyethylene (20) sorbitan monoisostearate), pH 5.0-6.0, 90720 min) [%] | water solubility [2] | MIC (Strep mutans; Streptococcus mutans, read-out: MIC) [µg/mL]
Zinc++ | 40.00 | 40 | – | – | – | –
CCCCC(CC)CN1CN(CC(CC)CCCC)CC(C)(N)C1 (stereo not shown) [Hexetidine, 5-amino-1,3-bis(2 ethylhexyl)-5-methyl-hexahydropyrimidine] | 0.60 | – | 65 | 92 | water-insoluble | 0.6
